The results in this text go back to patent publication US11911408B2, “Synergistic formulations of adenosine receptor modulating agents and anticholinergics” (UNIVERSITY OF ALASKA FAIRBANKS, priority 2021, dated 2024).

Molecules are shown by their SMILES. “Also recorded” adds a separate entry of the source.

For data set [1], the system named is Sprague-Dawley rats. The data set is described as follows: Minimizing hemodynamic effects: antagonist pretreatments before IP CHA/CPA, rats on 4° C. cooled surface.
Method: Fifteen different treatment combinations were administered to five male Sprague-Dawley rats with an average age of 314±88 days and weight of 453±44 g (mean±SD) in a modified cross over design as shown in Table 1). […] A washout period of at least one week was allowed between treatments. One hour of baseline data (body temperature, blood pressure, heart rate, and metabolism) was acquired before treatment. Rats received either a single IP injection of CHA or were pre-treated with antagonists 15 or 30 minutes prior to CHA drugs and were then placed on a 4° C. cooled surface (previously described Laughlin et al; herein incorporated by reference). Surface temperature was manually adjusted to prevent body temperature from falling below 32° C.
The pressure transducer was cannulated into the descending abdominal aorta.
Rats were placed inside a 12″×12″ clear acrylic box without bedding sitting on top of a custom built, aluminum hydronic surface. The aluminum surface was part of a cooling and heating system controlled by a thermostat in which circulating water was heated or cooled via thermoelectric Peltier plates and pumped through the aluminum cage floor. […] Food and water was provided ad libitum. The vascular access button was attached to a tether and swivel (Instech, VAHD115T, 375/D/22, Plymouth Meeting, Pa.) connected to a counter balance arm to provide freedom of movement.
In data set [2] the test system is Sprague-Dawley rats. The data set is described as follows: 8-SPT dose determination (IV): atropine and 8-SPT bolus before CHA loading dose and infusion, 4° C. cooled surface. In kind it is in vivo, rat. The note with it: Atropine 1 mg/kg and SPT 10, 15 or 25 mg/kg (all doses) 15 min before CHA 1 mg/kg bolus, 0.25 mg/(kg·h) IV; n=5.
Method: To define the dose-response relationship between 8-SPT combined with a constant concentration of atropine and CHA, three drug treatment combinations with varying doses of 8-SPT were tested. […] One hour of baseline data (body temperature, blood pressure, heart rate, and metabolism) were acquired before treatment. Rats received IV bolus of Atropine and 8-SPT 15 minutes before CHA. An IV loading dose of CHA was administered followed by a two hour continuous infusion of CHA. Rats were placed on a 4° C. cooled surface (previously described Laughlin et al). Surface temperature was manually adjusted to prevent body temperature from falling below 32° C.
Rats were placed inside a 12″×12″ clear acrylic box without bedding sitting on top of a custom built, aluminum hydronic surface. The aluminum surface was part of a cooling and heating system controlled by a thermostat in which circulating water was heated or cooled via thermoelectric Peltier plates and pumped through the aluminum cage floor. […] Food and water was provided ad libitum.
Setting [3] is: 8-SPT 25 mg/kg 15 min before CHA (S15C), n=4-5.
Setting [4] is: 8-SPT 25 mg/kg administered 30 min after CHA 1 mg/kg, n=4-5.

Turning to `CN1C2CCC1CC(OC(=O)C(CO)c1ccccc1)C2` (centres unmarked) [Atropine, atropine], the “prevention of CHA induced hypotension” value with Sprague-Dawley rats [1] (rat, in vivo) is “not sufficient; also recorded: does not prevent”.

On to `CN(C)CCOC(c1ccccc1)c1ccccc1` [diphenhydramine], for which the prevention of hypotension entry with Sprague-Dawley rats [1] (diphenhydramine 4 mg/kg alone 30 min before CHA 1 mg/kg (D30C), n=3-5) was “not sufficient”.

`Cn1c(=O)c2[nH]c(-c3ccc(S(=O)(=O)O)cc3)nc2n(C)c1=O` [8-SPT, 8-(p-sulfophenyl) theophylline]: the CHA induced hypotension entry in the data set on Sprague-Dawley rats [2] is “effectively blocked”. In the data set with Sprague-Dawley rats [1] (setting [3]), the “effect on heart rate compared to CHA 1 mg/kg alone” value is listed as “minimal effect” and the “effect on mean arterial pressure compared to CHA 1 mg/kg alone” value was “minimal effect”. Further, in the data set with Sprague-Dawley rats [1] (setting [4]), the core body temperature result is “increased significantly”, the heart rate entry is on record as “increased significantly”, the mean arterial pressure result was “increased significantly” and the oxygen consumption result is “increased significantly”. For the same compound, in the data set with Sprague-Dawley rats [1] (8-SPT 25 mg/kg alone 15 min before CHA 1 mg/kg (S15C), n=3-5), the “prevention of CHA induced hypotension” value was “not sufficient”. The “prevention of the initial drop in blood pressure or heart rate (hypotension) immediately following CHA administration” value in the data set with Sprague-Dawley rats [1] (8-SPT alone (pretreatment), dose not stated) is “cannot prevent; also recorded: not sufficient”. Besides, the “increase of blood pressure” value in the data set on Sprague-Dawley rats [1] (8-SPT alone, after metabolic suppression is stabilized) is on record as “sufficient”.

On to `OC[C@H]1O[C@@H](n2cnc3c(NC4CCCCC4)ncnc32)[C@H](O)[C@@H]1O` [CHA, N6-Cyclohexyladenosine], for which the “blood pressure effect of the agonist alone” value in the data set on Sprague-Dawley rats [1] (1 mg/kg at time point zero, n=4-5) was “hypotension”.

Turning to `CC(C)NCC(O)COc1cccc2ccccc12` (centres unmarked) [propranolol], the prevention of hypotension result with Sprague-Dawley rats [1] (propranolol 4 mg/kg alone 15 min before CHA 1 mg/kg (P15C), n=3-5) is listed as “not sufficient”.
